This note sets out measurements from publication PMC3531433, “Structural Insights into Cellulolytic and Chitinolytic Enzymes Revealing Crucial Residues of Insect β-N-acetyl-D-hexosaminidase” (PLoS ONE, 2012).

Assay [1] concerns the target T1, OfHex1 (Ostrinia furnacalis, UniProt Q06GJ0, E328A).
T1 construct: pPIC9, secreted from Pichia pastoris GS115; HisTrap and Mono Q purified; dimer with N-terminal zincin-like and C-terminal catalytic domain (residues 207-594)
T1 sequence (Q06GJ0 23-594 E328A): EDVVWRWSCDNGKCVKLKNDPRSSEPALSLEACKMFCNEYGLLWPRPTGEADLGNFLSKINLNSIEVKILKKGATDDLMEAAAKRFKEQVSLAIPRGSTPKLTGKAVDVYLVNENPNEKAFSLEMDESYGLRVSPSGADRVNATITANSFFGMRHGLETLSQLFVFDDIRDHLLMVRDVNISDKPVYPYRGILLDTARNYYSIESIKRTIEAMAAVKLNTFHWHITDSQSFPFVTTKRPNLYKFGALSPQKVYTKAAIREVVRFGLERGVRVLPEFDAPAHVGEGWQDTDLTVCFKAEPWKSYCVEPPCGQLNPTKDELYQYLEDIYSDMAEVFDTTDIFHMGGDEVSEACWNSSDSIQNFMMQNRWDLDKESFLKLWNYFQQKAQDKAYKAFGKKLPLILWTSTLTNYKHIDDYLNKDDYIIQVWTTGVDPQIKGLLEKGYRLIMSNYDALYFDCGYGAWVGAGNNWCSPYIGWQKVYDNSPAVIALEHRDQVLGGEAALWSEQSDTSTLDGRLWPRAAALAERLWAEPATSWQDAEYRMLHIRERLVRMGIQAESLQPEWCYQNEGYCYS
Briefly: inhibition of 4MU-β-GlcNAc hydrolysis, Dixon plot. Format: biochemical. An excerpt:
(§1) inhibition of 4MU-β-GlcNAc hydrolysis, Dixon plot on OfHex1

The target of assay [2] is T2, OfHex1 (Ostrinia furnacalis, UniProt Q06GJ0, E328Q).
T2 construct: pPIC9, secreted from Pichia pastoris GS115; HisTrap and Mono Q purified; dimer with N-terminal zincin-like and C-terminal catalytic domain (residues 207-594)
T2 sequence (Q06GJ0 23-594 E328Q): T1 sequence (Q06GJ0 23-594 E328A)
Briefly: inhibition of 4MU-β-GlcNAc hydrolysis, Dixon plot. Format: biochemical.
Text: as §1

For the compound `CC(=O)N[C@@H]1[C@@H](O)[C@H](O[C@@H]2O[C@H](CO)[C@@H](O[C@@H]3O[C@H](CO)[C@@H](O[C@@H]4O[C@H](CO)[C@@H](O)[C@H](O)[C@H]4[N+](C)(C)C)[C@H](O)[C@H]3NC(C)=O)[C@H](O)[C@H]2NC(C)=O)[C@@H](CO)O[C@H]1O` [TMG-chitotriomycin], the Ki on OfHex1 [1] was 2710 nM; on OfHex1 [2], 101 nM.
